According to ChEMBL document CHEMBL1140238, “Synthesis of selective SRPK-1 inhibitors: novel tricyclic quinoxaline derivatives” (Bioorg Med Chem Lett, 2005):

Legend:
[1] = Inhibitory activity against Platelet-derived growth factor receptor kinase
[2] = molecular target: Mitogen-activated protein kinase 8 (Homo sapiens) (UniProt P45983); experiment: In vitro percent inhibition of c-Jun N-terminal kinase 1-alpha 1 at 10 uM concentration of compound dissolved in 100% DMSO using 5''-[gamma-33P]-triphosphate
Sequence of Mitogen-activated protein kinase 8 (Homo sapiens) (P45983 whole entry): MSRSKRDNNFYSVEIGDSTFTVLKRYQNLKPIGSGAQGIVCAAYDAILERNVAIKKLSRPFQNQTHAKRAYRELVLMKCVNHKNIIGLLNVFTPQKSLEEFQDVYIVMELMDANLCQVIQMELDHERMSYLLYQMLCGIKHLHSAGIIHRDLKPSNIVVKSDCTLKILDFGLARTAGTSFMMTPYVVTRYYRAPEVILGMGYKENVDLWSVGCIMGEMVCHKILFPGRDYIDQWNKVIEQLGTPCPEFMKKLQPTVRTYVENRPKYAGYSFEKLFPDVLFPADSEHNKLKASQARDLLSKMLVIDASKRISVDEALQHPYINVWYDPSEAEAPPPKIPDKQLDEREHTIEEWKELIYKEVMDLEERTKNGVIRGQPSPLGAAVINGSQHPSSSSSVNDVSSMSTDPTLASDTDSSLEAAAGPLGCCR

[3] = In vitro percent inhibition of Cyclin-dependent kinase 2-cyclin A at 10 uM concentration of compound dissolved in 100% DMSO using 5''-[gamma-33P]-triphosphate
[4] = molecular target: Ribosomal protein S6 kinase (P70S6K) (Homo sapiens) (UniProt Q9UBS0+P23443); experiment: In vitro percent inhibition of Ribosomal protein S6 kinase at 10 uM concentration of compound dissolved in 100% DMSO using 5''-[gamma-33P]-triphosphate; type: protein-complex assay
[5] = molecular target: RAF proto-oncogene serine/threonine-protein kinase (Homo sapiens) (UniProt P04049); experiment: In vitro percent inhibition of RAF proto-oncogene serine/threonine-protein kinase at 10 uM concentration of compound dissolved in 100% DMSO using 5''-[gamma-33P]-triphosphate
Sequence of RAF proto-oncogene serine/threonine-protein kinase (Homo sapiens) (P04049 whole entry): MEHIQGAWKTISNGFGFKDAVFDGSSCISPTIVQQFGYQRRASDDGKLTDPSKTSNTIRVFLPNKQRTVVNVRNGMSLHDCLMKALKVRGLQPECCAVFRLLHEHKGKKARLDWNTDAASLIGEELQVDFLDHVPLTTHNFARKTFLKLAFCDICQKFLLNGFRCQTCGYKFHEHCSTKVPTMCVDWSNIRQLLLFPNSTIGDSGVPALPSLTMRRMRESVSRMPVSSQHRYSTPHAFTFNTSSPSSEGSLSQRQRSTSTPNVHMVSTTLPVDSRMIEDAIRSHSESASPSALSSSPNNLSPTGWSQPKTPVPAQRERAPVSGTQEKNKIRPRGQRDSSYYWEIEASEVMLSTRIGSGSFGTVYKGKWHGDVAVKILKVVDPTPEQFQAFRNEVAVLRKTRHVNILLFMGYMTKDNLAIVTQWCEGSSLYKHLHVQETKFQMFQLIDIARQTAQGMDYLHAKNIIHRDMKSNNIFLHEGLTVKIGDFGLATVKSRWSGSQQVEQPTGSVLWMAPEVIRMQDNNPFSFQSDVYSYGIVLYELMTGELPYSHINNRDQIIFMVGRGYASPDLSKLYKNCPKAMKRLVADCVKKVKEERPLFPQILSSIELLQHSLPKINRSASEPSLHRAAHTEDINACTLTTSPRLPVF

[6] = molecular target: Platelet-derived growth factor receptor beta (Homo sapiens) (UniProt P09619); experiment: In vitro percent inhibition of Platelet-derived growth factor receptor, beta polypeptide at 10 uM concentration of compound dissolved in 100% DMSO using 5''-[gamma-33P]-triphosphate
[7] = molecular target: Mast/stem cell growth factor receptor Kit (Homo sapiens) (UniProt P10721); experiment: In vitro percent inhibition of v-kit Hardy-Zuckerman 4 feline sarcoma viral oncogene homolog at 10 uM concentration of compound dissolved in 100% DMSO using 5''-[gamma-33P]-triphosphate
Sequence of Mast/stem cell growth factor receptor Kit (Homo sapiens) (P10721 whole entry): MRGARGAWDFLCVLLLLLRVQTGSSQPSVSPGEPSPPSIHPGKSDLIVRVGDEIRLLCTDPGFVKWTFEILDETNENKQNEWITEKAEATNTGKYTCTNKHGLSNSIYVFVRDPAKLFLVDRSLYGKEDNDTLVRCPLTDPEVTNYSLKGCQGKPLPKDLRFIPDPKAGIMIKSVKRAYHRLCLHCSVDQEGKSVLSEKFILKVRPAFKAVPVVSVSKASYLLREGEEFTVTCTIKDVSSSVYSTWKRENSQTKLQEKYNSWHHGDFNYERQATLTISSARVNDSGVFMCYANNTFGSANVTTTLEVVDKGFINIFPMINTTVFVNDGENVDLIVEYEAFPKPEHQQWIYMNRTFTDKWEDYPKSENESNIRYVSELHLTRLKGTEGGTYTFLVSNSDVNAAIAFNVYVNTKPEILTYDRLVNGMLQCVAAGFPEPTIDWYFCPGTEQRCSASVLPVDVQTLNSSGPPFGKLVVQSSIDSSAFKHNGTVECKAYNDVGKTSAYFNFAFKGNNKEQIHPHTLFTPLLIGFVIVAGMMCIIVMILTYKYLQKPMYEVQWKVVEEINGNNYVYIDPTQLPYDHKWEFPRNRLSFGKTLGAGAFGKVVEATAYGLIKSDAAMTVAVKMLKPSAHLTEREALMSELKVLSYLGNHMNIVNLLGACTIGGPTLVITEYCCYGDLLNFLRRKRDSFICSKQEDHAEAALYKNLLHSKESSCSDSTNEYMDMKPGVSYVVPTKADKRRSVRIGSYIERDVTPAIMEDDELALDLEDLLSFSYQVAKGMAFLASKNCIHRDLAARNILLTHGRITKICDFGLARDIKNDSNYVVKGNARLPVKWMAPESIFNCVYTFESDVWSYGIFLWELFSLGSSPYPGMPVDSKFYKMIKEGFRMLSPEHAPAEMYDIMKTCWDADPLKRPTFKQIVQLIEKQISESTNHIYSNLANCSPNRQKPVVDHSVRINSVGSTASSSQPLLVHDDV

[8] = molecular target: Insulin receptor (Homo sapiens) (UniProt P06213); experiment: In vitro percent inhibition of Insulin receptor at 10 uM concentration of compound dissolved in 100% DMSO using 5''-[gamma-33P]-triphosphate
[9] = molecular target: Hepatocyte growth factor receptor (Homo sapiens) (UniProt P08581); experiment: In vitro percent inhibition of Met proto-oncogene tyrosine kinase at 10 uM concentration of compound dissolved in 100% DMSO using 5''-[gamma-33P]-triphosphate
[10] = molecular target: Mitogen-activated protein kinase 3 (Homo sapiens) (UniProt P27361); experiment: In vitro percent inhibition of Mitogen-activated protein kinase 3 at 10 uM concentration of compound dissolved in 100% DMSO using 5''-[gamma-33P]-triphosphate
Sequence of Mitogen-activated protein kinase 3 (Homo sapiens) (P27361 whole entry): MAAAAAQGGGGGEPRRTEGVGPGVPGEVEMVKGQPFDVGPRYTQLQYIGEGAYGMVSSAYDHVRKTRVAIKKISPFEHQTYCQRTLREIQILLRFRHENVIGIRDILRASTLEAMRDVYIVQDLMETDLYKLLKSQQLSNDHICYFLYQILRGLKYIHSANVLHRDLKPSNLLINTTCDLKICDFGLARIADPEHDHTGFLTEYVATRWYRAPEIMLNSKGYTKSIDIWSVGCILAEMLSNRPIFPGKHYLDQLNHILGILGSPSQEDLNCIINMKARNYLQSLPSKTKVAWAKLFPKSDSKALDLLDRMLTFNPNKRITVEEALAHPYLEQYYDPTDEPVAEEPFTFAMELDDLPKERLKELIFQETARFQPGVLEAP

[11] = molecular target: Tyrosine-protein kinase Lck (Homo sapiens) (UniProt P06239); experiment: In vitro percent inhibition of p56 Lck tyrosine kinase at 10 uM concentration of compound dissolved in 100% DMSO using 5''-[gamma-33P]-triphosphate
Sequence of Tyrosine-protein kinase Lck (Homo sapiens) (P06239 2-509 limits assumed): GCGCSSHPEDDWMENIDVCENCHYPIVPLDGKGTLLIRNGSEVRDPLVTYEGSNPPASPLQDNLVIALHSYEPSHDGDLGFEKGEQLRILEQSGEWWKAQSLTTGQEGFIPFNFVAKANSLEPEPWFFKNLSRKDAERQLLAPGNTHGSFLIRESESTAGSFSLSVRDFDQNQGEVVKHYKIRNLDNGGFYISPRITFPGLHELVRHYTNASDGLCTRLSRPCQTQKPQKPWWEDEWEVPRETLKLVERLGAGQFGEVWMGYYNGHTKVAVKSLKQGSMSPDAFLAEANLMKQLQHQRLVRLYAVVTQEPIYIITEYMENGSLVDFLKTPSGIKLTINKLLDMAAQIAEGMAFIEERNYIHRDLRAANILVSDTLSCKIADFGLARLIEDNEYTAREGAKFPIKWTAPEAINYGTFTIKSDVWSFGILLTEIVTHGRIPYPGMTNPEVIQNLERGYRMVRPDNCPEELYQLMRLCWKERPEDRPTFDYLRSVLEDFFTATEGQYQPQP

[12] = molecular target: Rho-associated protein kinase 2 (Homo sapiens) (UniProt O75116); experiment: In vitro percent inhibition of Protein kinase ROCK2 at 10 uM concentration of compound dissolved in 100% DMSO using 5''-[gamma-33P]-triphosphate
Sequence of Rho-associated protein kinase 2 (Homo sapiens) (O75116 whole entry, looked up, canonical isoform): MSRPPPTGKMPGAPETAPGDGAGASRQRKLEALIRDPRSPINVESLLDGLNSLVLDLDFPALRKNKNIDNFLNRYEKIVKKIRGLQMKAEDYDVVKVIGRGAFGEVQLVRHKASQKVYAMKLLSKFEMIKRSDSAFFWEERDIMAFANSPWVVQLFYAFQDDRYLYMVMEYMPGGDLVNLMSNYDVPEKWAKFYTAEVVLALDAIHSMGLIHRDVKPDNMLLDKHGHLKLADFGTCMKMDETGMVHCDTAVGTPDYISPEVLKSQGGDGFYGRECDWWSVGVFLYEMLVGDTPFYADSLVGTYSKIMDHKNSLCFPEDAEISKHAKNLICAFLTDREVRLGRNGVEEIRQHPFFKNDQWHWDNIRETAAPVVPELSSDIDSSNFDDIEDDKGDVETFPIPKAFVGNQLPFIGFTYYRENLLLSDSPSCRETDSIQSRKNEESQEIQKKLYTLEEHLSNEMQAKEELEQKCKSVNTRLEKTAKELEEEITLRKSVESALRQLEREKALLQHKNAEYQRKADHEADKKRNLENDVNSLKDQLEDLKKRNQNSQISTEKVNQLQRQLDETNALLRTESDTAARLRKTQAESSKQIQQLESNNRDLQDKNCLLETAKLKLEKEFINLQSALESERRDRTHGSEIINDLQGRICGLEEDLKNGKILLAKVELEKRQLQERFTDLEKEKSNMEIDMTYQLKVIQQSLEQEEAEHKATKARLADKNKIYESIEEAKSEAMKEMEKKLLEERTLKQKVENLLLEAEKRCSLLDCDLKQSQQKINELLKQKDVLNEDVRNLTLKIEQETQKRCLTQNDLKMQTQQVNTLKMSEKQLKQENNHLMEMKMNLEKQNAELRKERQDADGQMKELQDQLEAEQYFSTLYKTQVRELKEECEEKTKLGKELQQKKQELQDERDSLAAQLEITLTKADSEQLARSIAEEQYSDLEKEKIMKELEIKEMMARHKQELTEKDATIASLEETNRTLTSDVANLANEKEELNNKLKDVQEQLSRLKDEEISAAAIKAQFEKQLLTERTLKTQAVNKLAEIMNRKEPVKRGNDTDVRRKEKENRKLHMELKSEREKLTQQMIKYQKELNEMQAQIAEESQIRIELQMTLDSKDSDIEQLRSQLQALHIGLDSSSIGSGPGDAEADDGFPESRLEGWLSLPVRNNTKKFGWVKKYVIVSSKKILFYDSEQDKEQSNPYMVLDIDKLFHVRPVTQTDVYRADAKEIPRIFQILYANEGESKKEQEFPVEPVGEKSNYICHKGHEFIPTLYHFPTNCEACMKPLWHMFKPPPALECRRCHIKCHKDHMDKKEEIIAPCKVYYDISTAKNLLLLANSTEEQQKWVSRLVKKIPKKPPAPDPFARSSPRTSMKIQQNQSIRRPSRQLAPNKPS

[13] = molecular target: Casein kinase I isoform alpha (Homo sapiens) (UniProt P48729); experiment: In vitro percent inhibition of Casein kinase 1 alpha at 10 uM concentration of compound dissolved in 100% DMSO using 5''-[gamma-33P]-triphosphate
[14] = molecular target: T1, Inhibitor of nuclear factor kappa-B kinase subunit beta (Homo sapiens) (UniProt O14920); experiment: In vitro percent inhibition of I-kappa-B-kinase beta at 10 uM concentration of compound dissolved in 100% DMSO using 5''-[gamma-33P]-triphosphate
T1 sequence (whole entry): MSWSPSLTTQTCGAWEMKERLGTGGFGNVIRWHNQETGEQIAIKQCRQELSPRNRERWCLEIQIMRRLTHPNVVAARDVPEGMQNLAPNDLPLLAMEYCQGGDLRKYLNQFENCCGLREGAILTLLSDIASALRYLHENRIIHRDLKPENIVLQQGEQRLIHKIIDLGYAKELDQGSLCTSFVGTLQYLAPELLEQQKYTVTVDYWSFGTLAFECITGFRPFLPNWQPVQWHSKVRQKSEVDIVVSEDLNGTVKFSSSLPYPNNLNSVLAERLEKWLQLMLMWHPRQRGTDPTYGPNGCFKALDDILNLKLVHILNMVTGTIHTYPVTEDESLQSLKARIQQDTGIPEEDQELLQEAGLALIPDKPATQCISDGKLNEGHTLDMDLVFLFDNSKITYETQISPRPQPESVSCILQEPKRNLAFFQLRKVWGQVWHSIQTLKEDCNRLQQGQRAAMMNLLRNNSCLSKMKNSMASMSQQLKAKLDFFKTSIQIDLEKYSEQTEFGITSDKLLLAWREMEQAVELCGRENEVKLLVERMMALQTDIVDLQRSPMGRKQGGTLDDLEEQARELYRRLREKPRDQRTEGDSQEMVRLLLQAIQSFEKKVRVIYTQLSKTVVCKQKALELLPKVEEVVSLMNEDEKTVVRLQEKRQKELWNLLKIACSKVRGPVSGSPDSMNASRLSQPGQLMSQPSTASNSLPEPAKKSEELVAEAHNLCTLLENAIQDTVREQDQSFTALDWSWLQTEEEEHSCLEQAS

[15] = In vitro percent inhibition of Ribosomal S6 kinase 1 at 10 uM concentration of compound dissolved in 100% DMSO using 5''-[gamma-33P]-triphosphate
[16] = molecular target: Proto-oncogene tyrosine-protein kinase Src (Homo sapiens) (UniProt P12931); experiment: In vitro percent inhibition of c-Src tyrosine kinase at 10 uM concentration of compound dissolved in 100% DMSO using 5''-[gamma-33P]-triphosphate
Sequence of Proto-oncogene tyrosine-protein kinase Src (Homo sapiens) (P12931 2-536 limits assumed): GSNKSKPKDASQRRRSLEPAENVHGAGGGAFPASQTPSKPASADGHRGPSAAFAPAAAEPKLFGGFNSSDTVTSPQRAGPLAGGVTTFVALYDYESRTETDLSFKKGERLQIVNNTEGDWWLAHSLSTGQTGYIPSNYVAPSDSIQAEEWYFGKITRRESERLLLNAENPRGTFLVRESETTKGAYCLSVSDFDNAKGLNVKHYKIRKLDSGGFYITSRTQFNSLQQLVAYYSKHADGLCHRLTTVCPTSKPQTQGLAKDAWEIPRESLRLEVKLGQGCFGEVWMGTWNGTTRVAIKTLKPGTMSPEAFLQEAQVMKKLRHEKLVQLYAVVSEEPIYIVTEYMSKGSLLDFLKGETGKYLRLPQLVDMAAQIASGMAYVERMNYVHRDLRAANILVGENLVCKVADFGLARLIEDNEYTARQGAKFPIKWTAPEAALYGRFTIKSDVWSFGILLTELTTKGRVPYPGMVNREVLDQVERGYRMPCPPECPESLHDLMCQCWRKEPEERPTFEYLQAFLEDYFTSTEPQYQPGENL

[17] = molecular target: T2, Tyrosine-protein kinase transforming protein Abl (Abelson murine leukemia virus) (UniProt P00521); experiment: In vitro percent inhibition of v-Abl tyrosine kinase at 10 uM concentration of compound dissolved in 100% DMSO using 5''-[gamma-33P]-triphosphate
T2 sequence (whole entry): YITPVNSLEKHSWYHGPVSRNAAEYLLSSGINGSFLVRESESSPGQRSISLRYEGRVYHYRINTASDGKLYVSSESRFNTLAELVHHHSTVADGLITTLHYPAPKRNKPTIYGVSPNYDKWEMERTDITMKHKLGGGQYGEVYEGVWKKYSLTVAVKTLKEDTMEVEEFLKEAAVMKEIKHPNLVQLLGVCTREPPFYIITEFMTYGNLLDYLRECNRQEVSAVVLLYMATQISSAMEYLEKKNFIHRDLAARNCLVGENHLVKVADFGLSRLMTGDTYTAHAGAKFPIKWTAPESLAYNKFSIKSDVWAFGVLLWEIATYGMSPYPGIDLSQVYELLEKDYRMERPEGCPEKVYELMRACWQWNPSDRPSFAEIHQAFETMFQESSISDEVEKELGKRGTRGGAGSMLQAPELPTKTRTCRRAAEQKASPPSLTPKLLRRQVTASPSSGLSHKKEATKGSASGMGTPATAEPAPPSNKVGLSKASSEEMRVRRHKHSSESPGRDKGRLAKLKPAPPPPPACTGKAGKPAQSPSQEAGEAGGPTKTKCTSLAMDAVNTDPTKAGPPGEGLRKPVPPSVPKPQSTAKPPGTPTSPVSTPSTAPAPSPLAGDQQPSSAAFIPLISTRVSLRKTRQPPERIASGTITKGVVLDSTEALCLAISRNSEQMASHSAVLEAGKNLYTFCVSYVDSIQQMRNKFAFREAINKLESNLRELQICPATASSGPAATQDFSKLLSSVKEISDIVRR

[18] = Partition coefficient (logP); type: physicochemical; conditions: octanol/water
[19] = molecular target: Epidermal growth factor receptor (Homo sapiens) (UniProt P00533); conditions: 10 uM
SRPK1 (Homo sapiens) = experiment: In vitro inhibition of SR protein kinase 1 by compound dissolved in 100% DMSO using 5''-[gamma-33P]-triphosphate; n.a. - not active

inhibition [2] [%] | inhibition [3] [%] | inhibition [4] [%] | inhibition [5] [%] | inhibition [6] [%] | inhibition [7] [%] | inhibition [8] [%] | inhibition [9] [%] | inhibition [10] [%] | inhibition [11] [%] | inhibition [12] [%] | inhibition [13] [%] | inhibition [14] [%] | inhibition [15] [%] | inhibition [16] [%] | inhibition [17] [%] | logP [18] | inhibition [19] [%] | IC50 (SRPK1 (Homo sapiens)) | Compound | IC50 [1] [nM]
– | – | – | – | – | – | – | – | – | – | – | – | – | – | – | – | – | – | – | c1ccc(-c2cnc3cc4ccccc4cc3n2)cc1 | 900
15 | -7 | 2 | -5 | 24 | 22 | 34 | 27 | 21 | 39 | 32 | -5 | 22 | 17 | 75 | 10 | 5 | 26 | Not Active | c1csc(-c2nc3cc4c(cc3nc2-c2cccs2)OCCCO4)c1 | –
